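Assay format: 96-well plates, 48-hour exposure. GI50 = concentration required for 50% inhibition of growth. At the TGI there is no net growth.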
Tests used:
Test in all cases: NCI anticancer screen, dose series, 48 h; in the data active means GI50 below about 0.43 µM; inactive means the rest
786-0 renal = test system: 786-0 renal
A498 renal = test system: A498 renal
A549 NSCLC = test system: A549 NSCLC
ACHN renal = test system: ACHN renal
BT-549 breast = test system: BT-549 breast
CAKI-1 renal = test system: CAKI-1 renal
CCRF-CEM leukemia = test system: CCRF-CEM leukemia
COLO 205 colon = test system: COLO 205 colon
DU-145 prostate = test system: DU-145 prostate
EKVX NSCLC = test system: EKVX NSCLC
HCC-2998 colon = test system: HCC-2998 colon
HCT-116 colon = test system: HCT-116 colon
HCT-15 colon = test system: HCT-15 colon
HL-60(TB) leukemia = test system: HL-60(TB) leukemia
HOP-62 NSCLC = test system: HOP-62 NSCLC
HOP-92 NSCLC = test system: HOP-92 NSCLC
HS 578T breast = test system: HS 578T breast
HT29 colon = test system: HT29 colon
IGROV1 ovarian = test system: IGROV1 ovarian
K-562 leukemia = test system: K-562 leukemia
KM12 colon = test system: KM12 colon
LOX IMVI melanoma = test system: LOX IMVI melanoma
M14 melanoma = test system: M14 melanoma
MALME-3M melanoma = test system: MALME-3M melanoma
MCF7 breast = test system: MCF7 breast
MDA-MB-231 breast = test system: MDA-MB-231 breast
MDA-MB-435 = test system: MDA-MB-435
MOLT-4 leukemia = test system: MOLT-4 leukemia
NCI-H226 lung = test system: NCI-H226 lung
NCI-H460 lung = test system: NCI-H460 lung
NCI-H522 lung = test system: NCI-H522 lung
NCI/ADR-RES ovarian = test system: NCI/ADR-RES ovarian
OVCAR-3 ovarian = test system: OVCAR-3 ovarian
OVCAR-4 ovarian = test system: OVCAR-4 ovarian
OVCAR-5 ovarian = test system: OVCAR-5 ovarian
OVCAR-8 ovarian = test system: OVCAR-8 ovarian
PC-3 prostate = test system: PC-3 prostate
RPMI-8226 leukemia = test system: RPMI-8226 leukemia
RXF 393 renal = test system: RXF 393 renal
SF-268 CNS = test system: SF-268 CNS
SF-295 CNS = test system: SF-295 CNS
SF-539 CNS = test system: SF-539 CNS
SK-MEL-2 melanoma = test system: SK-MEL-2 melanoma
SK-MEL-28 melanoma = test system: SK-MEL-28 melanoma
SK-MEL-5 melanoma = test system: SK-MEL-5 melanoma
SK-OV-3 ovarian = test system: SK-OV-3 ovarian
SN12C renal = test system: SN12C renal
SNB-19 CNS = test system: SNB-19 CNS
SNB-75 CNS = test system: SNB-75 CNS
SR leukemia = test system: SR leukemia
SW-620 colon = test system: SW-620 colon
T-47D breast = test system: T-47D breast
TK-10 renal = test system: TK-10 renal
U251 CNS = test system: U251 CNS
UACC-257 melanoma = test system: UACC-257 melanoma
UACC-62 melanoma = test system: UACC-62 melanoma
UO-31 renal = test system: UO-31 renal

Cc1ccc(-c2nc(C(Cl)Cl)nc3cc(-c4ccccc4)nn23)cc1
35.2 µM: TGI (HT29 colon)
24 µM: TGI (RXF 393 renal)
90.1 µM: TGI (OVCAR-8 ovarian)
74.6 µM: TGI (SK-MEL-28 melanoma)
58.9 µM: TGI (MALME-3M melanoma)
55.8 µM: TGI (SW-620 colon)
98 µM: TGI (MDA-MB-435)
31.8 µM: TGI (ACHN renal)
> 100 µM: TGI (786-0 renal) | TGI (BT-549 breast) | TGI (CCRF-CEM leukemia) | TGI (HCT-116 colon) | TGI (HL-60(TB) leukemia) | TGI (HS 578T breast) | TGI (IGROV1 ovarian) | TGI (K-562 leukemia) | TGI (LOX IMVI melanoma) | TGI (MCF7 breast) | TGI (MDA-MB-231 breast) | TGI (NCI-H226 lung) | TGI (NCI/ADR-RES ovarian) | TGI (OVCAR-5 ovarian) | TGI (PC-3 prostate) | TGI (RPMI-8226 leukemia) | TGI (SF-268 CNS) | TGI (SF-539 CNS) | TGI (SK-MEL-2 melanoma) | TGI (SK-MEL-5 melanoma) | TGI (SN12C renal) | TGI (SNB-19 CNS) | TGI (SNB-75 CNS) | TGI (SR leukemia) | TGI (T-47D breast) | TGI (TK-10 renal) | TGI (UACC-257 melanoma) | TGI (UACC-62 melanoma) | TGI (UO-31 renal)
29.7 µM: TGI (DU-145 prostate)
66.4 µM: TGI (KM12 colon)
71.2 µM: TGI (SF-295 CNS)
72.3 µM: TGI (HCT-15 colon)
62.3 µM: TGI (HOP-62 NSCLC)
28.1 µM: TGI (A549 NSCLC)
50.2 µM: TGI (M14 melanoma)
31.5 µM: TGI (OVCAR-3 ovarian)
34.1 µM: TGI (U251 CNS)
57.8 µM: TGI (EKVX NSCLC)
58.7 µM: TGI (SK-OV-3 ovarian)
73.1 µM: TGI (OVCAR-4 ovarian)
30.3 µM: TGI (NCI-H460 lung)
58.3 µM: TGI (CAKI-1 renal)
38.9 µM: TGI (A498 renal)
42.8 µM: TGI (NCI-H522 lung)
79.4 µM: TGI (HOP-92 NSCLC)
23.4 µM: TGI (COLO 205 colon)
96.7 µM: TGI (MOLT-4 leukemia)
inactive: GI50 (786-0 renal) > 100 µM | GI50 (A498 renal) 17.4 µM | GI50 (A549 NSCLC) 10 µM | GI50 (ACHN renal) 7.54 µM | GI50 (BT-549 breast) 30.7 µM | GI50 (CAKI-1 renal) 16.2 µM | GI50 (CCRF-CEM leukemia) 47.7 µM | GI50 (COLO 205 colon) 10.1 µM | GI50 (DU-145 prostate) 4.21 µM | GI50 (EKVX NSCLC) 17.8 µM | GI50 (HCC-2998 colon) 6.05 µM | GI50 (HCT-116 colon) 15.6 µM | GI50 (HCT-15 colon) 10.5 µM | GI50 (HL-60(TB) leukemia) 6.5 µM | GI50 (HOP-62 NSCLC) 16.5 µM | GI50 (HOP-92 NSCLC) 23.9 µM | GI50 (HS 578T breast) 56.9 µM | GI50 (HT29 colon) 7.41 µM | GI50 (IGROV1 ovarian) 36.3 µM | GI50 (K-562 leukemia) 22.4 µM | GI50 (KM12 colon) 17.8 µM | GI50 (LOX IMVI melanoma) 22.4 µM | GI50 (M14 melanoma) 20.6 µM | GI50 (MALME-3M melanoma) 23.3 µM | GI50 (MCF7 breast) 18.1 µM | GI50 (MDA-MB-231 breast) 20.5 µM | GI50 (MDA-MB-435) 25.3 µM | GI50 (MOLT-4 leukemia) 18.2 µM | GI50 (NCI-H226 lung) 75.2 µM | GI50 (NCI-H460 lung) 7.26 µM | GI50 (NCI-H522 lung) 14.5 µM | GI50 (NCI/ADR-RES ovarian) 13.5 µM | GI50 (OVCAR-3 ovarian) 13.4 µM | GI50 (OVCAR-4 ovarian) 17.9 µM | GI50 (OVCAR-5 ovarian) 24.2 µM | GI50 (OVCAR-8 ovarian) 15.3 µM | GI50 (PC-3 prostate) 23.7 µM | GI50 (RPMI-8226 leukemia) 35.9 µM | GI50 (RXF 393 renal) 10.6 µM | GI50 (SF-268 CNS) 24.6 µM | GI50 (SF-295 CNS) 24 µM | GI50 (SF-539 CNS) 61.1 µM | GI50 (SK-MEL-2 melanoma) > 100 µM | GI50 (SK-MEL-28 melanoma) 27.2 µM | GI50 (SK-MEL-5 melanoma) > 100 µM | GI50 (SK-OV-3 ovarian) 20.9 µM | GI50 (SN12C renal) 98.9 µM | GI50 (SNB-19 CNS) 19.7 µM | GI50 (SNB-75 CNS) > 100 µM | GI50 (SR leukemia) 9.91 µM | GI50 (SW-620 colon) 9.97 µM | GI50 (T-47D breast) 28.3 µM | GI50 (TK-10 renal) 33.3 µM | GI50 (U251 CNS) 9.5 µM | GI50 (UACC-257 melanoma) 35.3 µM | GI50 (UACC-62 melanoma) 81.8 µM | GI50 (UO-31 renal) > 100 µM
20 µM: TGI (HCC-2998 colon)
